Laboratory results as given in patent publication US9278915B2, “Agonists of GPR40” (CONNEXIOS LIFE SCIENCES PVT LTD, priority 2010, dated 2016).

Target: T1, hGPR40 (Homo sapiens, UniProt O14842)
T1 construct: expressed in transfected cells
Experiment: Calcium flux assay to detect GPR40 activation
Type: cell-based
Settings: CHO-K cells stably expressing hGPR40; Fluo-4 NW; read for 4 min at 5 s intervals
Summary of the method: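 CHO-K cells stably expressing hGPR40 were cultured 24 h at 37 °C and loaded with Fluo-4 NW for 30 min at 37 °C plus 30 min at RT. Compounds diluted in HEPES buffer were added, and calcium fluorescence was recorded for 4 min at 5 s intervals.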

T1 sequence (O14842 whole entry): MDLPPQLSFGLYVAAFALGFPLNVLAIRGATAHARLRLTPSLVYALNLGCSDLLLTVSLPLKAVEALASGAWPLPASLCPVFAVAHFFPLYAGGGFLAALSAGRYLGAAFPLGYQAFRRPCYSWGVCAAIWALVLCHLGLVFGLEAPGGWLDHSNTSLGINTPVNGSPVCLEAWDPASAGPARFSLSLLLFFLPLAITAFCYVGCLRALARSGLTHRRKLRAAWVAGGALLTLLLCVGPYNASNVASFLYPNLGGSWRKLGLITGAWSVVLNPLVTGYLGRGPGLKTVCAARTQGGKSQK

| SMILES | EC50 |
| --- | --- |
| CO/N=C(\COc1ccc(COc2ccc(/C=C/C(=O)O)c(OC)c2)cc1)c1ccccc1 [Compound 95, (2E,2Z)-3-{2-Methoxy-4-[(4-{[(2Z)-2-(methoxyimino)-2-phenylethyl]oxy}benzyl)oxy]phenyl}prop-2-enoic acid] | > 100 nM |
| CO/N=C(\COc1ccc(COc2ccc(C(O)CC(=O)O)cc2)cc1)c1ccccc1 (centres unmarked) [Compound 118, 3-Hydroxy-3-{4-[(4-{[(2Z)-2-(methoxyimino)-2-phenylethyl]oxy}benzyl)oxy]phenyl}propanoic acid] | > 100 nM |
| CO/N=C(\COc1ccc(COc2ccc(C(C#N)CC(=O)O)c(C)c2)cc1)c1ccccc1 (centres unmarked) [Compound 62, 3-Cyano-3-{4-[(4-{[(2Z)-2-(methoxyimino)-2-phenylethyl]oxy}benzyl)oxy]-2-methylphenyl}propanoic acid] | 10 to 100 nM |
| CO/N=C(\COc1ccc(COc2ccc(C(C#N)CC(=O)O)cc2)cc1)c1ccc2c(c1)CCC2 (centres unmarked) [Compound 103, 3-Cyano-3-{4-[(4-{[(2Z)-2-(2,3-dihydro-1H-inden-5-yl)-2-(methoxyimino)ethyl]oxy}benzyl)oxy]phenyl}propanoic acid] | 10 to 100 nM |
| CO/N=C(/COc1ccc(COc2ccc(C(C#N)CC(=O)O)cc2)cc1)c1ccccc1 (single isomer, unassigned) [Compound 100, 3-Cyano-3-{4-[(4-{[(2E)-2-(methoxyimino)-2-phenylethyl]oxy}benzyl)oxy]phenyl}propanoic acid] | 10 to 100 nM |
| C=CCO/N=C(\COc1ccc(COc2ccc(CCC(=O)O)cc2)cc1)c1ccccc1 [Compound 110, 3-(4-{[4-({(2E,2Z)-2-Phenyl-2-[(prop-2-en-1-yloxy)imino]ethyl}oxy)benzyl]oxy}phenyl)propanoic acid] | < 10 nM |
| N#CC(CC(=O)O)c1ccc(OCc2ccc(OC/C(=N\O)c3ccccc3)cc2)cc1 (centres unmarked) [Compound 78, 3-Cyano-3-{4-[(4-{[(2E,2Z)-2-(hydroxyimino)-2-phenylethyl]oxy}benzyl)oxy]phenyl}propanoic acid] | 10 to 100 nM |
| CO/N=C(\COc1ccc(COc2ccc(C3CC3C(=O)O)cc2)cc1)c1ccc(C#N)cc1 (single isomer, unassigned) [Compound 79, Sodium 2-{4-[(4-{[(2Z)-2-(4-cyanophenyl)-2-(methoxyimino)ethyl]oxy}benzyl)oxy]phenyl}cyclopropanecarboxylate] | > 100 nM |
| CO/N=C(\COc1ccc(COc2ccc([C@H]3C[C@@H]3C(=O)O)cc2)cc1)c1ccc(C#N)cc1 [Compound 64, (1S,2S)-2-{4-[(4-{[(2E,2Z)-2-(4-Cyanophenyl)-2-(methoxyimino)ethyl]oxy}benzyl)oxy]phenyl}cyclopropanecarboxylic acid] | 10 to 100 nM |
| CO/N=C(\COc1ccc(COc2ccc(CCC(=O)O)c(F)c2)cc1)c1ccc(C#N)cc1 [Compound 39] | < 10 nM |
| CO/N=C(\COc1ccc(COc2ccc(/C(CC(=O)O)=N\OC3CCCCC3)cc2)cc1)c1ccccc1 [Compound 124, (3E,3Z)-3-[(Cyclohexyloxy)imino]-3-{4-[(4-{[(2Z)-2-(methoxyimino)-2-phenylethyl]oxy}benzyl)oxy]phenyl}propanoic acid] | > 100 nM |
| CO/N=C(\COc1ccc(COc2ccc(/C(CC(=O)O)=N\OC)cc2)cc1)c1ccccc1 [Compound 68, (3E,3Z)-3-(Methoxyimino)-3-{4-[(4-{[(2Z)-2-(methoxyimino)-2-phenylethyl]oxy}benzyl)oxy]phenyl}propanoic acid] | > 100 nM |
| CO/N=C(\COc1ccc(COc2ccc(CCC(=O)O)cc2)cc1)c1ccccc1 [Compound 7, 3-{4-[(4-{[(2Z)-2-(Methoxyimino)-2-phenylethyl]oxy}benzyl)oxy]phenyl}propanoic acid] | < 10 nM |
| CO/N=C(\COc1ccc(COc2ccc(C(C#N)CC(=O)O)cc2)cc1)c1ccccc1 (single isomer, unassigned; (-)) [Compound 82, (−)-Sodium 3-cyano-3-{4-[(4-{[(2E,2Z)-2-(methoxyimino)-2-phenylethyl]oxy}benzyl)oxy]phenyl}propanoate] | < 10 nM |
| CO/N=C(/COc1ccc(COc2ccc(C(C#N)CC(=O)O)cc2)cc1F)c1ccccc1 (racemic) [Compound 21, 3-Cyano-3-{4-[(3-fluoro-4-{[(2E,2Z)-2-(methoxyimino)-2-phenylethyl]oxy}benzyl)oxy]phenyl}propanoic acid] | 10 to 100 nM |
| CO/N=C(\COc1ccc(COc2ccc(C(C#N)CC(=O)O)c(OC)c2)cc1)c1ccccc1 (centres unmarked) [Compound 83, 3-Cyano-3-{2-methoxy-4-[(4-{[(2Z)-2-(methoxyimino)-2-phenylethyl]oxy}benzyl)oxy]phenyl}propanoic acid] | 10 to 100 nM |
| CO/N=C(\COc1ccc(COc2ccc(CCC(=O)O)c(F)c2)cc1)c1ccccc1 [Compound 36, 3-{2-Fluoro-4-[(4-{[(2Z)-2-(methoxyimino)-2-phenylethyl]oxy}benzyl)oxy]phenyl}propanoic acid] | < 10 nM |
| CO/N=C(\COc1ccc(COc2ccc(C(C#N)CC(=O)O)cc2)cc1)c1ccccc1 (centres unmarked) [Compound 16, 3-Cyano-3-{4-[(4-{[(2Z)-2-(methoxyimino)-2-phenylethyl]oxy}benzyl)oxy]phenyl}propanoic acid] | 10 to 100 nM |
| CO/N=C(\COc1ccc(COc2ccc(C(C#N)CC(=O)O)cc2)cc1)c1ccccc1 (single isomer, unassigned; (-)) [Compound 75, (−)-3-Cyano-3-{4-[(4-{[(2Z)-2-(methoxyimino)-2-phenylethyl]oxy}benzyl)oxy]phenyl}propanoic acid] | < 10 nM |
| CO/N=C(/COc1ccc(COc2ccc(C(C#N)CC(=O)O)cc2)cc1)c1ccccc1 (racemic) [Compound 98, 3-Cyano-3-{4-[(4-{[(2E)-2-(methoxyimino)-2-phenylethyl]oxy}benzyl)oxy]phenyl}propanoic acid] | 10 to 100 nM |
| CO/N=C(/COc1ccc(COc2ccc(C(C#N)CC(=O)O)cc2)c(F)c1)c1ccccc1 (racemic) [Compound 23, 3-Cyano-3-{4-[(2-fluoro-4-{[(2E,2Z)-2-(methoxyimino)-2-phenylethyl]oxy}benzyl)oxy]phenyl}propanoic acid] | < 10 nM |
| N#CC(CC(=O)O)c1ccc(OCc2ccc(OC/C(=N\O)c3ccccc3)cc2)cc1 (centres unmarked) [Compound 109, 3-Cyano-3-{4-[(4-{[(2Z)-2-(hydroxyimino)-2-phenylethyl]oxy}benzyl)oxy]phenyl}propanoic acid] | > 100 nM |
| CO/N=C(\COc1ccc(COc2ccc(C(C#N)CC(=O)O)cc2)cc1)c1ccccc1 (single isomer, unassigned; (+)) [Compound 74, (+)-3-Cyano-3-{4-[(4-{[(2Z)-2-(methoxyimino)-2-phenylethyl]oxy}benzyl)oxy]phenyl}propanoic acid] | > 100 nM |
| CO/N=C(\COc1ccc(CNc2ccc(CCC(=O)O)cc2)cc1)c1ccccc1C [Compound 6, 3-{4-[(4-{[(2Z)-2-(Methoxyimino)-2-(2-methylphenyl)ethyl]oxy}benzyl)amino]phenyl}propanoic acid] | 10 to 100 nM |
| CO/N=C(\COc1ccc(COc2ccc(/C(CC(=O)O)=N\OCc3ccccc3)cc2)cc1)c1ccccc1 [Compound 122, (3E,3Z)-3-[(Benzyloxy)imino]-3-{4-[(4-{[(2Z)-2-(methoxyimino)-2-phenylethyl]oxy}benzyl)oxy]phenyl}propanoic acid] | > 100 nM |
| CO/N=C(\COc1ccc(COc2ccc(C(CC(=O)O)C3CC3)cc2)cc1)c1ccccc1 (centres unmarked) [Compound 87, 3-Cyclopropyl-3-{4-[(4-{[(2Z)-2-(methoxyimino)-2-phenylethyl]oxy}benzyl)oxy]phenyl}propanoic acid] | > 100 nM |
